Like-named read-outs stand apart in the source and are kept apart here.
Key:
DA D1 receptor = DA D1 receptor (Rattus norvegicus, UniProt P18901); test: biochemical; type: binding; conditions: IC50, D1 3H-SCH
DA D2 receptors = target: T1, DA D2 receptors (Rattus norvegicus, UniProt P61169); test: Inhibition of 3H-spiperone binding to DA D2 receptors in rat striatal membranes; conditions: rat striatal membranes, 3H-spiperone; read-out: Receptor Binding; IC50, D2 3H-Spi
T1 construct: DA D2 receptors in rat striatal membranes; from tissue; host or cells: rat striatal membranes

5-HT2 receptors = target: T2, 5-HT2 receptors (Rattus norvegicus, UniProt P14842); test: Inhibition of 3H-ketanserin binding to 5-HT2 receptors in membranes from rat cortex; conditions: Receptor Binding, IC50, 5-HT2 3H-Ket
T2 construct: 5-HT2 receptors in membranes from rat cortex; from tissue; host or cells: membranes from rat cortex
Procedure: Receptor binding studies.
5-HT2 receptors. Inhibition of ^3 H-ketanserin binding to 5-HT2 receptors in membranes from rat cortex was determined as described by Hyttel, J. Acta. Pharmacol. Toxicol.

[1] = rat striatal membranes, 3H-SCH 23390, read-out: Receptor Binding

T2 sequence (P14842 whole entry): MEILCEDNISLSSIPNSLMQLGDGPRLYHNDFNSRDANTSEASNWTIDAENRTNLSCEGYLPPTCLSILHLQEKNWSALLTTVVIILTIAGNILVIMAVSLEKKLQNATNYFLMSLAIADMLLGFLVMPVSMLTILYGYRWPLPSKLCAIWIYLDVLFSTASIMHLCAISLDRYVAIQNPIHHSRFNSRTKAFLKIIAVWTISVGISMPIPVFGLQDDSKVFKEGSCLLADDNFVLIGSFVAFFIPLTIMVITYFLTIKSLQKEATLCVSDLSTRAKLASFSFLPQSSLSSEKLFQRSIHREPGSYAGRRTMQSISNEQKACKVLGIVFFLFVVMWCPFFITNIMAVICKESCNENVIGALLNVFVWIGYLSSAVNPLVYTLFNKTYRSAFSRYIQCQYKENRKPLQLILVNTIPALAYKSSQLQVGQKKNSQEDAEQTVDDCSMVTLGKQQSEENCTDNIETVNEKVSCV
DA D1 receptor, sequence (P18901 whole entry): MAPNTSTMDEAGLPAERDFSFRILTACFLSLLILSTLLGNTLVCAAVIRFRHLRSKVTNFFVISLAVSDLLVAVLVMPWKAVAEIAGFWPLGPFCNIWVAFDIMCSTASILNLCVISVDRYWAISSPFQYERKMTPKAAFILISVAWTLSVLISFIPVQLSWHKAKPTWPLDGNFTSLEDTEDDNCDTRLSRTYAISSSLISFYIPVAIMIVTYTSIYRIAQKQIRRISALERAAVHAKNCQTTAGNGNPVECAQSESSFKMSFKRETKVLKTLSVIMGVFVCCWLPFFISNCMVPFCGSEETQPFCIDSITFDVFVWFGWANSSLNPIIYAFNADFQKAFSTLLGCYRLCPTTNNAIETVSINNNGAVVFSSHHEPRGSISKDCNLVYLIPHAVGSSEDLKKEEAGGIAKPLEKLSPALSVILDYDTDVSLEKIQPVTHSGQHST
T1 sequence (P61169 whole entry): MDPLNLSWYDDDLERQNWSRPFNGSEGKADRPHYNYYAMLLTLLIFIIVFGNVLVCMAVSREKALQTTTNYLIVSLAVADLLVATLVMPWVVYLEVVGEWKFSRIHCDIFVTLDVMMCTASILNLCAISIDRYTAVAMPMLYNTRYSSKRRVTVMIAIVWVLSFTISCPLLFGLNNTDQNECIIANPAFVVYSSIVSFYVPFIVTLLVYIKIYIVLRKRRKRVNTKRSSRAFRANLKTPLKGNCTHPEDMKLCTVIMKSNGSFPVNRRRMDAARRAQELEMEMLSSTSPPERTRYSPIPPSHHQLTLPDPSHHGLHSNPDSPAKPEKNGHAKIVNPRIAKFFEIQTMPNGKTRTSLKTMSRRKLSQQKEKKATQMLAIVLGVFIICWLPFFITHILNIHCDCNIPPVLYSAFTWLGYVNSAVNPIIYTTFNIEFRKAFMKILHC

SMILES | IC50 (DA D1 receptor; [1]) [nM] | IC50 (DA D2 receptors) [nM] | IC50 (5-HT2 receptors) [nM] | IC50 (DA D1 receptor; Receptor Binding) [nM]
CC1(C)CN([C@@H]2C[C@@H](c3ccc(F)cc3)c3ccc(Cl)cc32)CCN1 (racemic) [Compound 1, (±)-Trans-4-[6-chloro-3-(4-fluorophenyl)-2,3-dihydro-1H-inden-1-yl]-2,2-dimethylpiperazine] | 2.1 | 7.3 | 3.2 | 
CN1CCN([C@@H]2C[C@@H](c3ccccc3)c3ccccc32)CC1(C)C (racemic) [Compound 3, (±)-Trans-4-[3-phenyl-2,3-dihydro-1H-inden-1-yl]-1,2,2-trimethyl-piperazine] |  | 140 | 21 | 13
Cc1ccc2c(c1)[C@H](N1CCNC(C)(C)C1)C[C@H]2c1ccc(F)cc1 (racemic) [Compound 4, (±)-Trans-2,2-dimethyl-4-[6-methyl-3-(4-fluorophenyl)-2,3-dihydro-1H-inden-1-yl]piperazine] | 5.9 | 5.6 | 1.5 | 
Cc1ccc2c(c1)[C@H](N1CCN(C)C(C)(C)C1)C[C@H]2c1ccc(F)cc1 (racemic) [Compound 5, (±)-Trans-4-[6-methyl-3-(4-fluorophenyl)-2,3-dihydro-1H-inden-1-yl]-1,2,2-trimethylpiperazine] |  | 4.8 | 3.4 | 2.1
CN1CCN([C@@H]2C[C@@H](c3ccc(F)cc3)c3ccc(C(F)(F)F)cc32)CC1(C)C (racemic) [Compound 7, (±)-Trans-4-[6-trifluoromethyl-3-(4-fluorophenyl)-2,3-dihydro-1H-inden-1-yl]-1,2,2-trimethylpiperazine] |  | 5.7 | 4.5 | 1.5
CN1CCN([C@@H]2C[C@@H](c3ccc(F)cc3)c3ccc(Br)cc32)CC1(C)C (racemic) [Compound 8, (±)-Trans-4-[6-bromo-3-(4-fluorophenyl)-2,3-dihydro-1H-inden-1-yl]-1,2,2-trimethylpiperazine] |  | 8.6 | 3 | 1.8
CN1CCN([C@@H]2C[C@@H](c3ccc(F)cc3)c3cc(Cl)c(Cl)cc32)CC1(C)C (racemic) [Compound 9, (±)-Trans-4-[5,6-dichloro-3-(4-fluorophenyl)-2,3-dihydro-1H-inden-1-yl]-1,2,2-trimethylpiperazine] | 18 | 44 | 5.9 | 
CN1CCN([C@@H]2C[C@@H](c3ccccc3F)c3ccc(Cl)cc32)CC1(C)C (racemic) [Compound 11, (±)-Trans-4-[6-chloro-3-(2-fluorophenyl)-2,3-dihydro-1H-inden-1-yl]-1,2,2-trimethylpiperazine] |  | 36 | 21 | 4.4
CN1CCN([C@@H]2C[C@@H](c3cccc(F)c3)c3ccc(Cl)cc32)CC1(C)C (racemic) [Compound 12, (±)-Trans-4-[6-chloro-3-(3-fluorophenyl)-2,3-dihydro-1H-inden-1-yl]-1,2,2-trimethylpiperazine] |  | 280 | 26 | 9.6
CC1(C)CN([C@@H]2C[C@@H](c3ccsc3)c3ccc(Cl)cc32)CCN1 (racemic) [Compound 13, (±)-Trans-4-[6-chloro-3-(3-thienyl)-2,3-dihydro-1H-inden-1-yl]-2,2-dimethylpiperazine] |  | 8.2 | 1 | 1.4
CN1CCN([C@@H]2C[C@@H](c3ccsc3)c3ccc(Cl)cc32)CC1(C)C (racemic) [Compound 14, (±)-Trans-4-[6-chloro-3-(3-thienyl)-2,3-dihydro-1H-inden-1-yl]-1,2,2-trimethylpiperazine] |  | 6.1 | 1.7 | 0.76
CN1CCN([C@@H]2C[C@@H](c3ccc(F)cc3)c3c(Cl)cccc32)CC1(C)C (racemic) [Compound 15, (±)-Trans-4-[4-chloro-3-(4-fluorophenyl)-2,3-dihydro-1H-inden-1-yl]-1,2,2-trimethylpiperazine] | 45 |  | 29 | 
CN1CCN([C@@H]2C[C@@H](c3ccc(F)cc3)c3cc(Cl)ccc32)CC1(C)C (racemic) [Compound 16, (±)-Trans-4-[5-chloro-3-(4-fluorophenyl)-2,3-dihydro-1H-inden-1-yl]-1,2,2-trimethylpiperazine] |  | 340 | 9.3 | 37
CN1CCN([C@@H]2C[C@@H](c3ccc(F)cc3)c3cccc(Cl)c32)CC1(C)C (racemic) [Compound 17, (±)-Trans-4-[7-chloro-3-(4-fluorophenyl)-2,3-dihydro-1H-inden-1-yl]-1,2,2-trimethylpiperazine] |  | 1200 | 31 | 32
CCC1(CC)CN([C@@H]2C[C@@H](c3ccc(F)cc3)c3ccc(Cl)cc32)CCN1 (racemic) [Compound 23, (±)-Trans-4-[6-chloro-3-(4-fluorophenyl)-2,3-dihydro-1H-inden-1-yl]-2,2-diethylpiperazine] | 4.7 | 36 | 11 | 
CN1CCN([C@@H]2C[C@@H](c3ccc(F)cc3)c3ccc(Cl)cc32)CC12CCC2 (racemic) [Compound 28, (±)-Trans-8-[6-chloro-3-(4-fluorophenyl)-2,3-dihydro-1H-inden-1-yl]-5-methyl-5,8-diazaspiro[3.5]nonane] |  | 6.3 | 3 | 

SMILES | IC50 (DA D1 receptor; [1]) [nM] | IC50 (DA D2 receptors) [nM] | IC50 (5-HT2 receptors) [nM] | IC50 (DA D1 receptor; Receptor Binding) [nM]
Fc1ccc([C@@H]2C[C@@H](N3CCNC4(CCCCC4)C3)c3cc(Cl)ccc32)cc1 (racemic) [Compound 31, (±)-Trans-4-[6-chloro-3-(4-fluorophenyl)-2,3-dihydro-1H-inden-1-yl]-1,4-diazaspiro[5.5]undecan] | 6.4 | 75 | 25 | 
CN1CCN([C@@H]2C[C@@H](c3ccc(F)cc3)c3cccc(F)c32)CC1(C)C (racemic) [Compound 36, (±)-Trans-4-[7-fluoro-3-(4-fluorophenyl)-2,3-dihydro-1H-inden-1-yl]-1,2,2-trimethyl piperazine] |  | 74 | 9.8 | 3.8
CC1(C)CN([C@@H]2C[C@@H](c3ccc(F)cc3)c3ccc(Cl)cc32)CCN1CCCO (racemic) [Compound 39, (±)-Trans-4-[6-chloro-3-(4-fluorophenyl)-2,3-dihydro-1H-inden-1-yl]-2,2-dimethyl-1-piperazinepropanol] | 1.8 | 9.8 | 3 | 
CC(C)C1CN([C@@H]2C[C@@H](c3ccc(F)cc3)c3ccc(Cl)cc32)CCN1 (relative stereo) [Compound 19, Trans-4-[6-chloro-3-(4-fluorophenyl)-2,3-dihydro-1H-inden-1-yl]-2-(2-propyl)piperazine] | 2.2 | 38 | 5.6 | 
CC(C)C1CN([C@@H]2C[C@@H](c3ccc(F)cc3)c3ccc(Cl)cc32)CCN1 (relative stereo) [Compound 20, Trans-4-[6-chloro-3-(4-fluorophenyl)-2,3-dihydro-1H-inden-1-yl]-2-(2-propyl)piperazine] | 6 | 130 | 8.8 | 
CC(C)C1CN([C@@H]2C[C@@H](c3ccc(F)cc3)c3ccc(Cl)cc32)CCN1C (relative stereo) [Compound 22, Trans-4-[6-chloro-3-(4-fluorophenyl)-2,3-dihydro-1H-inden-1-yl]-1-methyl-2-(2-propyl)piperazine] | 43 | 400 |  | 
CC1CN([C@@H]2C[C@@H](c3ccc(F)cc3)c3ccc(Cl)cc32)C(C)CN1C (relative stereo) [Compound 25, (±)-Trans-4-[6-chloro-3-(4-fluorophenyl)-2,3-dihydro-1H-inden-1-yl]-(1-trans-2,5-trimethyl)piperazine] |  |  | 3.4 | 
C[C@@H]1CN([C@@H]2C[C@@H](c3ccc(F)cc3)c3ccc(Cl)cc32)C[C@H](C)N1C (relative stereo) [Compound 26, (±)-Trans-4-[6-chloro-3-(4-fluorophenyl)-2,3-dihydro-1H-inden-1-yl]-(1-cis-2,6-trimethyl)piperazine] |  |  | 3.3 | 
CN1CCN([C@@H]2C[C@@H](c3ccc(F)cc3)c3ccc(Cl)cc32)CC12CCCC2 (relative stereo) [Compound 29] |  |  | 5.2 | 
CC(C)N1CCN([C@@H]2C[C@@H](c3ccc(F)cc3)c3ccc(Cl)cc32)CC1(C)C (relative stereo) [Compound 40] |  |  | 4.1 | 
OCCN1CCN([C@@H]2C[C@@H](c3ccc(F)cc3)c3ccc(Cl)cc32)CC12CCCC2 (relative stereo) [Compound 44] |  |  | 6 | 
CN1CCN([C@@H]2C[C@@H](c3ccc(F)cc3)c3ccc(Cl)cc32)CC12CCCC2 (single isomer, unassigned) [+29, (+)-Trans-9-[6-chloro-3-(4-fluorophenyl)-2,3-dihydro-1H-inden-1-yl]-6-methyl-6,9-diazaspiro[4.5]decane] |  |  | 13 | 
CN1CCN([C@@H]2C[C@@H](c3ccc(F)cc3)c3ccc(Cl)cc32)CC12CCCC2 (single isomer, unassigned) [Compound -29] |  |  | 4 | 
CC(C)N1CCN([C@@H]2C[C@@H](c3ccc(F)cc3)c3ccc(Cl)cc32)CC1(C)C (single isomer, unassigned) [Compound -40] |  |  | 2.5 | 
OCCN1CCN([C@@H]2C[C@@H](c3ccc(F)cc3)c3ccc(Cl)cc32)CC12CCCC2 (single isomer, unassigned) [Compound -44] |  |  | 2.5 | 
OC1CCN2CCN(C3CC(c4ccc(F)cc4)c4ccc(F)cc43)CC2C1 (centres unmarked) [Compound 35, 2-[6-fluoro-3-(4-fluorophenyl)-2,3-dihydro-1H-inden-1-yl]-octahydropyrido[1,2-a]-pyrazine-8-ol] | 30 | 1100 |  | 

Source: patent US5807855A, “1-piperazino-1,2-dihydroindene derivatives” (priority 1992, dated 1998)
